Several values for one entry are separate records, joined by “and”; a condition that tells them apart may be missing. Identical values can stand only once.
What was measured:
CT-DNA = settings: literature comparison; ref [59],[60]; cited from earlier work
HT29 cells = settings: human
Source text: (§1) LDH activities were measurement at 492-630 nm using a microplate reader. The percentage cytotoxicity was find with using the equation, […], where experimental value is the test-molecule treated cells, and high control is Triton X-100 treated cells, and low standard or control (spontaneous LDH enzyme) is the untreated cells.

HeLa = assay: BrdU Cell Proliferation Assay (BCPA); assay type: cell-based; settings: BrdU ELISA, 24 h, mean ± SD of three experiments
Source text: (§2) The antiproliferative activities of Ag(I) molecules and the starting molecules of the parent molecules, N-bishydeten and [Ag(CN)2]^− compound, on cells, were monitored utilizing by the BrdU Cell Proliferation Assay (BCPA) (Fig. 6).
(§3) The antiproliferative activity of the 2, 3, 4, [Ag(CN)2]^− and 5FU against various cell lines (HeLa ATCC CCL-2, C6 cells ATCC CCL-107, HT29 ATCC HTB-38, and Vero ATCC CCL-81) were preserved and maintained in Dulbecco’s modified eagle’s medium, supplemented with %2 antibiotic (Streptomycin-Penicillin) solution and 10% fetal bovine serum.
(§4) The cell suspension including 5×10^3 cells in 100 µL was supplied into the well cell plates (96-well cell). The therapies of these cells with 2, 3, 4 and [Ag(CN)2]^− in DMSO (max 0.1% DMSO) and 5-Florouracil (5 FU) molecule in DMSO (max 0.1% DMSO) separately at concentration 0.25, 0.50, 1.00, 1.50, 2.00, 2.50, 3.75, and 5.00 µg/mL were carried out. The last volume was adapted to 200 µL by mixture and DMEM and also incubated for 24 h at 37°C with 5% CO2. The antiproliferative activities of the 2, 3, 4 and [Ag(CN)2]^− were determined with using BrdU Cell proliferation ELISA Kit conforming to manufacturer’s assay.
(§5) IC50 values the concentration of a factor which required for other method of in vitro.

C6 = assay: BrdU Cell Proliferation Assay (BCPA); assay type: cell-based; settings: BrdU ELISA, 24 h, mean ± SD of three experiments
Source text: as §2, §3, §4, §5

Vero = assay: BrdU Cell Proliferation Assay (BCPA); assay type: cell-based; settings: BrdU ELISA, 24 h, normal cell line, mean ± SD of three experiments
Source text: as §2, §3, §4, §5

in vitro = settings: human (HT-29, HeLa), rat (C6), African green monkey (Vero)
Source text: as §1

HT29 = assay: BrdU Cell Proliferation Assay (BCPA); assay type: cell-based, human; settings: BrdU ELISA, 24 h, mean ± SD of three experiments
Source text: as §2, §3, §4, §5

[1] = system: HeLa, HT29, C6 and Vero cells; assay: BrdU Cell Proliferation Assay, range over the cell lines; assay type: cell-based; settings: BrdU assay
Source text: as §2, §3, §4, §5

B. subtilis ATCC6633 [2] = assay: Serial microdilution assay (MIC); assay type: cell-based, Bacillus Subtilis
Method: (§6) […]. […] Four types of gram-positive bacterial strains (St. pyogenez, B. subtilis, B. cereus, S. aureus) and five types of the gram-negative (S. enteridis, E. aerogenes, P. aeruginosa, E. coli, and S. gallinarum) were sensitive to 4 and 1. […]. The minimal inhibitory concentration value was studied for the microorganism cells, which evaluated to sensitive the substances and they tested in the disc-diffusion method. Inoculate of microorganism was prepared utilizing 12 h suspensions and broth cultures were adjusted to 0.5 McFarland turbidity standard. Each substance was dissolved in 10% dimethyl sulfoxide which diluted to the highest concentration (1000 µg/mL) for testing. […]. Also, prepared suspensions for standard microorganisms were added to each dilution in a 1:1 ratio. Growth act of microorganism cells was determined visually after incubation at 36 °C. The minimum concentration was no visible growth which was taken as the MIC.

B. cereus DSM 4312 [3] = assay: Serial microdilution assay (MIC); assay type: cell-based, Bacillus Cereus
Method: as §6

P. aeruginosa ATCC9027 = assay: Serial microdilution assay (MIC); assay type: cell-based, Pseudomonas Aureginosa
Method: as §6

E. coli 111 [4] = assay: Serial microdilution assay (MIC); assay type: cell-based, Escherichia coli
Method: as §6

S. aureus ATCC29213 [5] = assay: Disc diffusion assay; assay type: cell-based, Staphylococcus aureus
Method: (§7) Therefore, the pathogen bacterial flora and the opportunistic agents may be taken into consideration both in the management of cancer patients and in individual susceptibility to cancer. Indeed, dual acting factors with antimicrobial and antiproliferative potentials can result in improved therapeutic efficacy for cancer cell patients or reduced cancer predisposition. […]. In this study, 10 microbial cultures of this part, belonging to ten types of bacterial were used. The culture was grown in Mueller–Hinton Broth (Merck) for all the bacterial strains at 36 °C. Antimicrobial test was carried out by using disc-diffusion assay utilizing 100 µL of suspension with 10^8 CFU/mL of bacteria and 10^6 CFU/mL of yeast spread on Nutrient Agar and Potato Dextrose Agar, respectively. Also, the blank disc (Oxoid = 6 mm in diameter) was impregnated with 20 µL of each substance (105 µg/disc) and placed on the inoculated agar. Negative controls ([…]) were prepared using the same solvent (water) employed to dissolve each substance. […]. The inoculated plate was incubated at 36 °C for clinical bacterial strains. Antimicrobial activities were evaluated by obtaining the zone of inhibitory effect against the test organisms.

BSA = BSA (Bos taurus, UniProt P02769); assay: UV–Visible absorption titration, BSA binding constant; set-up: species or system Bovine
Source text: UV–Visible absorption spectroscopy technique was also used to study interactions between BSA and 1–4. […] The some results of [BSA]/(εa − εf) = [BSA]/(εb − εf) + 1/[Kb(εb − εf)] in Fig. 9, used and also obtained. The binding constants for the 1–4 were found as 2.4 ± 0.22 × 10^4 M^−1, 4.3 ± 0.29 × 10^4 M^−1, 3.4 ± 0.23 × 10^4 M^−1 and 4.8 ± 0.29 × 10^4 M^−1, respectively. In Fig. 9, the increase in BSA concentrations leads to a change in the absorption of the complexes resulting in hypochromism for 1 and 3 and hyperchromism for 2 and 4.
To obtain the interaction act of the molecules with calf thymus DNA and also to determine the binding constants (Kb) UV–Visible absorption spectroscopy method was utilized. Indeed, 2.5 mg calf thymus DNA in this part was dissolved in Tris–HCl buffer and stabile pending seven days in the refrigerator. The concentration level of calf thymus DNA was calculated spectrophotometrically assay at 260 nm. This method was done according to previous studies.

St. pyogenez ATCC176 [6] = assay: Disc diffusion assay; assay type: cell-based, Steptococcus Pyogerez
Method: as §7

St. pyogenez ATCC176 [7] = assay: Serial microdilution assay (MIC); assay type: cell-based, Steptococcus Pyogerez
Method: as §6

E. aerogenes 2924 = assay: Disc diffusion assay; assay type: cell-based, Enterobacter Aerogenes
Method: as §7

S. gallinarum [8] = assay: Disc diffusion assay; assay type: cell-based, Salmonella Gallinarum
Method: as §7

S. enteridis ATCC13076 [9] = assay: Serial microdilution assay (MIC); assay type: cell-based, Salmonella Enteritidis
Method: as §6

B. subtilis ATCC6633 [10] = assay: Disc diffusion assay; assay type: cell-based, Bacillus Subtilis
Method: as §7

[11] = system: bacterial strains (four gram-positive, five gram-negative); assay: Serial microdilution assay (MIC), range over the bacterial strains; assay type: cell-based
Method: as §6

S. gallinarum [12] = assay: Serial microdilution assay (MIC); assay type: cell-based, Salmonella Gallinarum
Method: as §6

S. enteridis ATCC13076 [13] = assay: Disc diffusion assay; assay type: cell-based, Salmonella Enteritidis
Method: as §7

S. aureus ATCC29213 [14] = assay: Serial microdilution assay (MIC); assay type: cell-based, Staphylococcus aureus
Method: as §6

E. coli 111 [15] = assay: Disc diffusion assay; assay type: cell-based, Escherichia coli
Method: as §7

E. aerogenes ATCC2924 = assay: Serial microdilution assay (MIC); assay type: cell-based, Enterobacter Aerogenes
Method: as §6

B. cereus DSM 4312 [16] = assay: Disc diffusion assay; assay type: cell-based, Bacillus Cereus
Method: as §7

O=c1[nH]cc(F)c(=O)[nH]1 [5FU, 5-fluorouracil, reference compound]
binding constant with DNA (reported) (CT-DNA): 97000 M⁻¹
cytotoxicity against HT29 cells (LDH) (HT29 cells): 9–11%
IC50 (HeLa; Homo sapiens, HeLa): 276 ± 17 µM
IC50 (C6; Rattus norvegicus, C6): 217 ± 19 µM
IC50 (Vero; Chlorocebus sabaeus, Vero): 258 ± 21 µM
cytotoxicity (in vitro): 15 to 25%
IC50 (HT29; Homo sapiens, HT-29): 258 ± 21 µM

N.N.[Cl][Pt][Cl] [Cisplatin, cisplatin, reference compound]
IC50 (HeLa): 230 ± 15 µM
IC50 (C6): 208 ± 23 µM
IC50 (Vero): 235 ± 19 µM
IC50 ([1]; HeLa, HT29, C6, Vero): 153 to 235 µM
IC50 (HT29): 153 ± 14 µM

NCCN(CCO)CCO [N-bishydeten, N, N-bis (2-hydroxyethyl) -ethylenediamine, reference compound]
antiproliferative effect (in words) ([1]; same administrative dose, data not shown): no antiproliferative effects

[Ni(N-bishydeten)Ag3(CN)5] [Complex 1]
Minimum-inhibitory concentrations (MIC), B. subtilis ATCC6633 (B. subtilis ATCC6633 [2]): 62.50 ± 0.0 µg/mL
Minimum-inhibitory concentrations (MIC), B. cereus DSM 4312 (B. cereus DSM 4312 [3]): 62.50 ± 18.04 µg/mL
Minimum-inhibitory concentrations (MIC), P. aeruginosa ATCC9027 (P. aeruginosa ATCC9027): 62.50 ± 18.04 µg/mL
Minimum-inhibitory concentrations (MIC), E. coli 111 (E. coli 111 [4]): 62.50 ± 0.0 µg/mL
inhibition zones, S. aureus ATCC29213 (S. aureus ATCC29213 [5]): 18 ± 0.58 mm
binding constant with BSA (BSA): 2.4 ± 0.22 × 10^4 M^−1 and 2.4 x 10^4
inhibition zones, St. pyogenez ATCC176 (St. pyogenez ATCC176 [6]): 15 ± 0.0 mm
MIC, St. pyogenez (St. pyogenez ATCC176 [7]): 15.62 µg/mL
Minimum-inhibitory concentrations (MIC), St. pyogenez ATCC176 (St. pyogenez ATCC176 [7]): 15.62 ± 9.02 µg/mL
inhibition zones, E. aerogenes 2924 (E. aerogenes 2924): 15 ± 1.0 mm
inhibition zones, S. gallinarum (S. gallinarum [8]): 17 ± 0.58 mm
Minimum-inhibitory concentrations (MIC), S. enteridis ATCC13076 (S. enteridis ATCC13076 [9]): 62.50 ± 17.97 µg/mL
inhibition zones, B. subtilis ATCC6633 (B. subtilis ATCC6633 [10]): 14 ± 1.53 mm
MIC, joint range for 4 and 1 over the strains [11]: 15.62 to 125 µg/mL
MIC, S. gallinarum (S. gallinarum [12]): 31.25 µg/mL
Minimum-inhibitory concentrations (MIC), S. gallinarum (S. gallinarum [12]): 31.25 ± 0.0 µg/mL
inhibition zones, S. enteridis ATCC13076 (S. enteridis ATCC13076 [13]): 18 ± 0.58 mm
Minimum-inhibitory concentrations (MIC), S. aureus ATCC29213 (S. aureus ATCC29213 [14]): 62.50 ± 36.08 µg/mL
inhibition zones, E. coli 111 (E. coli 111 [15]): 19 ± 0.58 mm
MIC, E. aerogenes (E. aerogenes ATCC2924): 15.62 µg/mL
Minimum-inhibitory concentrations (MIC), E. aerogenes ATCC2924 (E. aerogenes ATCC2924): 15.62 ± 0.0 µg/mL
inhibition zones, B. cereus DSM 4312 (B. cereus DSM 4312 [16]): 20 ± 1.0 mm

Source: article PMC7385626 (Scientific Reports, 2020)
